Each structure is given as a SMILES string. Converted amounts (≈) assume the structure as drawn. Where only a bound is given, the exact number is not on record here.

Here are results for three molecules from patent US12186425B2, “Devices and methods for reducing cystine crystals in vivo” (University of Florida Research Foundation, Inc., priority 2017, dated 2025).

One series is described as follows: Solubility of cystine. The format is physicochemical. As to conditions: phosphate buffered saline, aqueous buffer; read-out: saturated solution of cystine.
For series [1] the following is noted: rabbit, in vivo; cited from earlier work.
For series [2] the following is noted: reported; cited from earlier work.

As to `N[C@@H](CSSC[C@H](N)C(=O)O)C(=O)O` [cystine], the solubility thermodynamic in “Solubility of cystine” was determined as 110 µg/mL (≈ 458 µM).
As for `NCCS` [cysteamine, β-mercaptoethylamine], the “eye drop concentration above which toxicity occurred” value in series [1] is > 0.55%.
With `CC(C)(C)NC[C@H](O)COc1nsnc1N1CCOCC1` [timolol], the epithelium permeability in series [2] is given as 1.2×10^−7 m/s.
